Test results as given in ChEMBL document CHEMBL1201862, “PubChem BioAssay data set” (2004).
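Test compounds were applied to cells in 96-well plates for 48 hours at 5 doses. Abbreviation: GI50, concentration required for 50% inhibition of growth.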 Calls of active or inactive are those of the source. Cut-off read from the data, not from the text of the source: active = GI50 up to about 1.1 µM and inactive = higher.

Legend:
Test in all cases: NCI tumour cell line growth inhibition, 48 h
DMS-273 = system: DMS-273
HOP-18 = system: HOP-18
KM-20L2 = system: KM-20L2
LXFL 529 = system: LXFL 529
RXF 631 = system: RXF 631
DLD-1 = system: DLD-1
XF498 = system: XF498

Measured: GI50

Cc1cccc(C(C)C)c1NC(=O)C(=O)CC(=O)c1c(C)[n+]([O-])c2ccccc2[n+]1[O-]
inactive: DMS-273 33.8 µM | HOP-18 96.4 µM | KM-20L2 37.6 µM | LXFL 529 34 µM | RXF 631 18.1 µM

Cc1cc2c(=O)cc(-c3ccc(F)cc3)oc2c(C(=O)O)c1C
inactive: DLD-1 > 100 µM | DMS-273 > 100 µM | HOP-18 > 100 µM | KM-20L2 > 100 µM | LXFL 529 > 100 µM | RXF 631 > 100 µM | XF498 > 100 µM

COC(=O)C1CC(C(=O)OC)c2nc3cc([N+](=O)[O-])ccc3nc21 (centres undefined)
inactive: DLD-1 31 µM | DMS-273 44.5 µM | HOP-18 > 100 µM | KM-20L2 63.7 µM | LXFL 529 36.9 µM | RXF 631 > 73.3 µM | XF498 > 96.6 µM

CC1(C)C(=NN=C(N)N)C(C)(C)C1=NN=C(N)N
inactive: DLD-1 > 100 µM | DMS-273 > 100 µM | KM-20L2 > 100 µM | LXFL 529 > 100 µM | RXF 631 > 100 µM | XF498 > 100 µM

BrC1=CC=C2NC=CC3=CC=NC1C32 (centres undefined)
inactive: DLD-1 19 µM | DMS-273 7.14 µM | HOP-18 14.1 µM | KM-20L2 19.7 µM | LXFL 529 19.5 µM | RXF 631 27.2 µM | XF498 22.9 µM

COC(=O)C1=C(O)c2cc(OC)c(OC)cc2C(c2ccc(OC)c(OC)c2)C1 (centres undefined)
inactive: DLD-1 44 µM | DMS-273 67.3 µM | HOP-18 > 100 µM | KM-20L2 86.7 µM | LXFL 529 43.3 µM | RXF 631 49.1 µM | XF498 94.6 µM

COc1ccc2c3c1C(=O)CCC3CO2 (centres undefined)
inactive: DLD-1 > 100 µM | DMS-273 > 100 µM | KM-20L2 > 100 µM | LXFL 529 > 100 µM | RXF 631 > 100 µM | XF498 > 100 µM

CC1(C)CC2CC(CC(C)(C)C2=O)C1=O
inactive: DLD-1 > 100 µM | DMS-273 > 100 µM | HOP-18 > 100 µM | KM-20L2 > 100 µM | LXFL 529 > 100 µM | RXF 631 > 100 µM | XF498 > 100 µM

O=C(c1ccccc1)N1CCc2c([nH]c3ccccc23)C1
inactive: DLD-1 64.7 µM | DMS-273 30.7 µM | HOP-18 52.6 µM | KM-20L2 54.1 µM | LXFL 529 36.4 µM | RXF 631 > 100 µM | XF498 20.8 µM

O=C(O)CCNS(=O)(=O)c1ccc([N+](=O)[O-])cc1
inactive: DLD-1 > 100 µM | DMS-273 > 100 µM | HOP-18 > 100 µM | KM-20L2 > 100 µM | LXFL 529 > 100 µM | RXF 631 > 100 µM | XF498 > 100 µM

CC1(C)CC(=O)C/C(=N/c2ccc([N+](=O)[O-])cc2)C1
inactive: DLD-1 21.1 µM | DMS-273 > 100 µM | HOP-18 > 100 µM | KM-20L2 > 100 µM | LXFL 529 > 100 µM | RXF 631 > 100 µM | XF498 > 100 µM

CC(=O)Oc1cc2c(=O)oc3c(OC(C)=O)c(OC(C)=O)c(OC(C)=O)c4c(=O)oc(c1OC(C)=O)c2c34
inactive: DLD-1 > 100 µM | DMS-273 > 100 µM | HOP-18 32.1 µM | KM-20L2 35.3 µM | LXFL 529 > 100 µM | RXF 631 25.4 µM | XF498 32.5 µM

CC(C)c1ccc(C2C3=C(N=C4SCC(=O)N42)C(=O)c2ccccc23)cc1 (centres undefined)
inactive: DLD-1 81.8 µM | DMS-273 > 100 µM | KM-20L2 > 100 µM | LXFL 529 52.4 µM | RXF 631 > 100 µM | XF498 87.3 µM

CCOc1cccc2ccc[n+](CC)c12
inactive: DLD-1 > 100 µM | DMS-273 35.8 µM | HOP-18 > 100 µM | KM-20L2 52.2 µM | LXFL 529 54.7 µM | RXF 631 > 100 µM | XF498 42.9 µM

O=C(O)CSc1nnc(Cc2ccccc2)[nH]1
inactive: DLD-1 > 100 µM | HOP-18 > 100 µM | LXFL 529 > 100 µM | RXF 631 > 100 µM | XF498 15.7 µM

CNS(=O)(=O)NN(C)S(=O)(=O)c1ccc(OC)cc1
inactive: DLD-1 > 100 µM | DMS-273 > 100 µM | KM-20L2 > 100 µM | LXFL 529 > 100 µM | RXF 631 > 100 µM | XF498 > 100 µM

C[C@@H](c1ccccc1)N(CC#N)C1CCC[C@H]1O (some centres undefined)
inactive: DMS-273 > 100 µM | HOP-18 > 100 µM | KM-20L2 > 100 µM | RXF 631 > 100 µM | XF498 > 100 µM
